Source: PubChem BioAssay (NCI)
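Results reflect a 48-hour exposure of cells in 96-well plates to compound at five concentrations. TGI: concentration producing complete growth inhibition.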

Key:
Test in all cases: inhibition of tumour cell growth, NCI panel, 48 h
786-0 renal = system: 786-0 renal
A498 renal = system: A498 renal
A549 NSCLC = system: A549 NSCLC
ACHN renal = system: ACHN renal
BT-549 breast = system: BT-549 breast
CAKI-1 renal = system: CAKI-1 renal
CCRF-CEM leukemia = system: CCRF-CEM leukemia
COLO 205 colon = system: COLO 205 colon
DLD-1 colon = system: DLD-1 colon
DMS 114 small cell lung = system: DMS 114 small cell lung
DU-145 prostate = system: DU-145 prostate
EKVX NSCLC = system: EKVX NSCLC
HCC-2998 colon = system: HCC-2998 colon
HCT-116 colon = system: HCT-116 colon
HCT-15 colon = system: HCT-15 colon
HL-60(TB) leukemia = system: HL-60(TB) leukemia
HOP-92 NSCLC = system: HOP-92 NSCLC
HT29 colon = system: HT29 colon
IGROV1 ovarian = system: IGROV1 ovarian
K-562 leukemia = system: K-562 leukemia
KM12 colon = system: KM12 colon
KM20L2 colon = system: KM20L2 colon
LOX IMVI melanoma = system: LOX IMVI melanoma
LXFL 529 NSCLC = system: LXFL 529 NSCLC
M14 melanoma = system: M14 melanoma
M19-MEL melanoma = system: M19-MEL melanoma
MCF7 breast = system: MCF7 breast
MDA-MB-231 breast = system: MDA-MB-231 breast
MDA-MB-435 = system: MDA-MB-435
MDA-N = system: MDA-N
MOLT-4 leukemia = system: MOLT-4 leukemia
NCI-H226 lung = system: NCI-H226 lung
NCI-H460 lung = system: NCI-H460 lung
NCI-H522 lung = system: NCI-H522 lung
NCI/ADR-RES ovarian = system: NCI/ADR-RES ovarian
OVCAR-3 ovarian = system: OVCAR-3 ovarian
OVCAR-4 ovarian = system: OVCAR-4 ovarian
OVCAR-5 ovarian = system: OVCAR-5 ovarian
OVCAR-8 ovarian = system: OVCAR-8 ovarian
PC-3 prostate = system: PC-3 prostate
RPMI-8226 leukemia = system: RPMI-8226 leukemia
RXF 393 renal = system: RXF 393 renal
SF-268 CNS = system: SF-268 CNS
SF-295 CNS = system: SF-295 CNS
SF-539 CNS = system: SF-539 CNS
SK-MEL-2 melanoma = system: SK-MEL-2 melanoma
SK-MEL-28 melanoma = system: SK-MEL-28 melanoma
SK-MEL-5 melanoma = system: SK-MEL-5 melanoma
SK-OV-3 ovarian = system: SK-OV-3 ovarian
SN12C renal = system: SN12C renal
SNB-19 CNS = system: SNB-19 CNS
SR leukemia = system: SR leukemia
SW-620 colon = system: SW-620 colon
T-47D breast = system: T-47D breast
TK-10 renal = system: TK-10 renal
U251 CNS = system: U251 CNS
UACC-257 melanoma = system: UACC-257 melanoma
UACC-62 melanoma = system: UACC-62 melanoma
XF 498 CNS = system: XF 498 CNS
DMS 273 small cell lung = system: DMS 273 small cell lung
HOP-18 NSCLC = system: HOP-18 NSCLC
HOP-62 NSCLC = system: HOP-62 NSCLC
MALME-3M melanoma = system: MALME-3M melanoma
NCI-H23 lung = system: NCI-H23 lung
SNB-75 CNS = system: SNB-75 CNS
UO-31 renal = system: UO-31 renal

With `COc1ccc(/C=C2/C(=O)N(C(=O)c3ccccc3O)N=C2C)cc1` the TGI (786-0 renal) was over 100 µM, the TGI (A498 renal) was 0.0747 µM and the TGI (A549 NSCLC) was over 100 µM. The TGI (ACHN renal) was over 100 µM, the TGI (BT-549 breast) was 98.1 µM and the TGI (CAKI-1 renal) was 51 µM. For the same compound, the TGI (CCRF-CEM leukemia) was over 100 µM, the TGI (COLO 205 colon) was over 89.2 µM and the TGI (DLD-1 colon) was over 100 µM. The TGI (DMS 114 small cell lung) was 2.25 µM, the TGI (DU-145 prostate) was over 100 µM and the TGI (EKVX NSCLC) was over 100 µM. For the same compound, the TGI (HCC-2998 colon) was over 100 µM, the TGI (HCT-116 colon) was over 100 µM and the TGI (HCT-15 colon) was 1.24 µM. The TGI (HL-60(TB) leukemia) was 9.87 µM, the TGI (HOP-92 NSCLC) was over 100 µM and the TGI (HT29 colon) was over 100 µM. It also gave a TGI (IGROV1 ovarian) of 0.0784 µM, a TGI (K-562 leukemia) of over 100 µM and a TGI (KM12 colon) of over 100 µM. For the same compound, the TGI (KM20L2 colon) was over 100 µM, the TGI (LOX IMVI melanoma) was over 46.6 µM and the TGI (LXFL 529 NSCLC) was over 100 µM. The TGI (M14 melanoma) was over 100 µM, the TGI (M19-MEL melanoma) was over 100 µM and the TGI (MCF7 breast) was over 100 µM. The TGI (MDA-MB-231 breast) was over 100 µM, the TGI (MDA-MB-435) was over 100 µM and the TGI (MDA-N) was over 100 µM. The TGI (MOLT-4 leukemia) was over 100 µM, the TGI (NCI-H226 lung) was 32.3 µM and the TGI (NCI-H460 lung) was over 100 µM. For the same compound, the TGI (NCI-H522 lung) was 8.51 µM, the TGI (NCI/ADR-RES ovarian) was 14.1 µM and the TGI (OVCAR-3 ovarian) was over 30.4 µM. It also gave a TGI (OVCAR-4 ovarian) of over 100 µM, a TGI (OVCAR-5 ovarian) of over 100 µM and a TGI (OVCAR-8 ovarian) of over 41.1 µM. It also gave a TGI (PC-3 prostate) of over 100 µM, a TGI (RPMI-8226 leukemia) of over 100 µM and a TGI (RXF 393 renal) of 1.23 µM. It also gave a TGI (SF-268 CNS) of over 100 µM, a TGI (SF-295 CNS) of over 100 µM and a TGI (SF-539 CNS) of 2.2 µM. For the same compound, the TGI (SK-MEL-2 melanoma) was over 100 µM, the TGI (SK-MEL-28 melanoma) was over 100 µM and the TGI (SK-MEL-5 melanoma) was 9.56 µM. For the same compound, the TGI (SK-OV-3 ovarian) was over 100 µM, the TGI (SN12C renal) was over 32 µM and the TGI (SNB-19 CNS) was over 100 µM. For the same compound, the TGI (SR leukemia) was over 100 µM, the TGI (SW-620 colon) was over 100 µM and the TGI (T-47D breast) was over 100 µM. For the same compound, the TGI (TK-10 renal) was over 100 µM, the TGI (U251 CNS) was over 100 µM and the TGI (UACC-257 melanoma) was over 100 µM. For the same compound, the TGI (UACC-62 melanoma) was over 100 µM and the TGI (XF 498 CNS) was over 100 µM.
With `C[N+](C)(C)CC1CCCCC1=O` (stereo not given) the TGI (786-0 renal) was over 100 µM, the TGI (A549 NSCLC) was over 100 µM and the TGI (ACHN renal) was 34.4 µM. For the same compound, the TGI (CCRF-CEM leukemia) was 20.2 µM, the TGI (COLO 205 colon) was 49.3 µM and the TGI (DLD-1 colon) was 39.2 µM. It also gave a TGI (DMS 114 small cell lung) of over 100 µM, a TGI (DMS 273 small cell lung) of over 100 µM and a TGI (EKVX NSCLC) of 57.5 µM. It also gave a TGI (HCT-116 colon) of 31.5 µM, a TGI (HCT-15 colon) of 29 µM and a TGI (HL-60(TB) leukemia) of 34.7 µM. For the same compound, the TGI (HOP-18 NSCLC) was 30.4 µM, the TGI (HOP-62 NSCLC) was over 100 µM and the TGI (HT29 colon) was 38.3 µM. It also gave a TGI (IGROV1 ovarian) of over 100 µM, a TGI (K-562 leukemia) of 64.3 µM and a TGI (KM12 colon) of over 100 µM. For the same compound, the TGI (KM20L2 colon) was 4.65 µM, the TGI (LOX IMVI melanoma) was 27.5 µM and the TGI (M14 melanoma) was 30.2 µM. The TGI (M19-MEL melanoma) was 35.2 µM, the TGI (MALME-3M melanoma) was 38.6 µM and the TGI (MOLT-4 leukemia) was 35.3 µM. The TGI (NCI-H226 lung) was over 100 µM, the TGI (NCI-H23 lung) was 40.8 µM and the TGI (NCI-H460 lung) was over 100 µM. It also gave a TGI (NCI-H522 lung) of 36.2 µM, a TGI (OVCAR-3 ovarian) of 34.5 µM and a TGI (OVCAR-8 ovarian) of 41.1 µM. It also gave a TGI (RPMI-8226 leukemia) of 44.7 µM, a TGI (RXF 393 renal) of 33.8 µM and a TGI (SF-295 CNS) of over 100 µM. For the same compound, the TGI (SF-539 CNS) was over 100 µM, the TGI (SK-MEL-28 melanoma) was 31.6 µM and the TGI (SK-MEL-5 melanoma) was 80.3 µM. For the same compound, the TGI (SK-OV-3 ovarian) was over 100 µM, the TGI (SN12C renal) was over 100 µM and the TGI (SNB-19 CNS) was over 100 µM. It also gave a TGI (SNB-75 CNS) of 81.2 µM, a TGI (SW-620 colon) of 29.7 µM and a TGI (TK-10 renal) of over 100 µM. It also gave a TGI (U251 CNS) of over 100 µM, a TGI (UACC-257 melanoma) of 30.9 µM and a TGI (UACC-62 melanoma) of 34 µM. The TGI (UO-31 renal) was over 100 µM.
